According to ChEMBL document CHEMBL5291721, “A preclinical secondary pharmacology resource illuminates target-adverse drug reaction associations of marketed drugs” (Nat Commun, 2023):

Key:
[1] = target: Vasopressin V2 receptor (Homo sapiens, UniProt P30518)
[2] = target: Voltage-dependent L-type calcium channel subunit alpha-1C (Rattus norvegicus, UniProt P22002); format: functional
[3] = target: Cannabinoid receptor 1 (Homo sapiens, UniProt P21554)
[4] = target: Gamma-aminobutyric acid receptor subunit alpha-1 (Rattus norvegicus, UniProt P62813)
[5] = target: Glutamate receptor ionotropic, NMDA 1 (Rattus norvegicus, UniProt P35439)
[6] = target: 5-hydroxytryptamine receptor 2B (Homo sapiens, UniProt P41595); format: functional, cell-based
[7] = target: T1, Progesterone receptor (Homo sapiens, UniProt P06401); format: functional
T1 sequence (P06401 whole entry): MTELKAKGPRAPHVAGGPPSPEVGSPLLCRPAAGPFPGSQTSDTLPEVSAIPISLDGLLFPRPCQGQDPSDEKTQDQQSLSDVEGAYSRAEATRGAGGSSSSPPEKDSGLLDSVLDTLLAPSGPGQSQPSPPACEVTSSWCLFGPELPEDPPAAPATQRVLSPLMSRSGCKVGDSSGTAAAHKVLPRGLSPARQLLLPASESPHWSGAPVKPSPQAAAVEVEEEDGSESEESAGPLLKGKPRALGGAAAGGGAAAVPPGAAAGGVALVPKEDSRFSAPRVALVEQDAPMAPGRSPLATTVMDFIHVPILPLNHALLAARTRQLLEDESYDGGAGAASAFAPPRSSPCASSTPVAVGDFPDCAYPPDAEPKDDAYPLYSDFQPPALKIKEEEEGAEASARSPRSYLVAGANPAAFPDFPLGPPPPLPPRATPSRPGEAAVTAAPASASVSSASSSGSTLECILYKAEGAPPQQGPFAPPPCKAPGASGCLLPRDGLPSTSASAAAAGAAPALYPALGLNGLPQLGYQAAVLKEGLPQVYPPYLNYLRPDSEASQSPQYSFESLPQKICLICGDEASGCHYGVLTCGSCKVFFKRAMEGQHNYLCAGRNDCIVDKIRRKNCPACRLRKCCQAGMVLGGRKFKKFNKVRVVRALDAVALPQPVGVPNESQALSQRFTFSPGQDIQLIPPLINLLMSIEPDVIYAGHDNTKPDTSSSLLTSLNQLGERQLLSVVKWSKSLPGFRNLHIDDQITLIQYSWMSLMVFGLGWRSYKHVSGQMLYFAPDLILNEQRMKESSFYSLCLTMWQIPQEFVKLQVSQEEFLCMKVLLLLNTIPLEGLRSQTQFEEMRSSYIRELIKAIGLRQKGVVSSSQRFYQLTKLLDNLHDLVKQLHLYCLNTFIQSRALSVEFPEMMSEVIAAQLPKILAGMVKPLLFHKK

[8] = target: T2, Alpha-1A adrenergic receptor (Homo sapiens, UniProt P35348); format: functional, cell-based
T2 sequence (P35348 whole entry): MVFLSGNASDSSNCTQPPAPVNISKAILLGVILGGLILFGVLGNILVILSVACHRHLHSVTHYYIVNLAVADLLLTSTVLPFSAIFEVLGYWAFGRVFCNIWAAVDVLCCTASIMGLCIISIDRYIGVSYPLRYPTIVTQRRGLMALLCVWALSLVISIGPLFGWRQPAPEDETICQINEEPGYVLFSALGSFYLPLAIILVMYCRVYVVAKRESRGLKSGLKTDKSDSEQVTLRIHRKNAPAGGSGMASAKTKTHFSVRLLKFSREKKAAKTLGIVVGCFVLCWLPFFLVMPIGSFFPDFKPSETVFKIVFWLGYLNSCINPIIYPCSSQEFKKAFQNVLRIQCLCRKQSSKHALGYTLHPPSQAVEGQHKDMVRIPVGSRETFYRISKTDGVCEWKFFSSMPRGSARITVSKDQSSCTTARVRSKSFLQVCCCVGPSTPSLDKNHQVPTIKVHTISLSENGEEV

[9] = target: T3, Alpha-2A adrenergic receptor (Homo sapiens, UniProt P08913)
T3 sequence (P08913 whole entry): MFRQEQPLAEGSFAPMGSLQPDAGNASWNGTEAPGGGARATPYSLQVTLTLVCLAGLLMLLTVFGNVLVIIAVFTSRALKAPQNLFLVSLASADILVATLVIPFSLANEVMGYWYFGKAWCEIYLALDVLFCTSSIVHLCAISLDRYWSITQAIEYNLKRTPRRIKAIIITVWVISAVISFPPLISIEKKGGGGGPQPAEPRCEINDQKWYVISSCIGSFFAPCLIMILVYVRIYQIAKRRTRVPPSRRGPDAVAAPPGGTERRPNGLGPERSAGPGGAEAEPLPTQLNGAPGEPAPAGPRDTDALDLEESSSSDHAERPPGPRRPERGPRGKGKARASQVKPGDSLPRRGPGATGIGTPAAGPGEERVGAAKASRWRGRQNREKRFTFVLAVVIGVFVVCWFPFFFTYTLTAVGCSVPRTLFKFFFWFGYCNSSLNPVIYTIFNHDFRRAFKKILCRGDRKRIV

[10] = target: Histamine H3 receptor (Homo sapiens, UniProt Q9Y5N1)
[11] = target: T4, Amine oxidase [flavin-containing] A (Homo sapiens, UniProt P21397); format: functional
T4 sequence (P21397 whole entry): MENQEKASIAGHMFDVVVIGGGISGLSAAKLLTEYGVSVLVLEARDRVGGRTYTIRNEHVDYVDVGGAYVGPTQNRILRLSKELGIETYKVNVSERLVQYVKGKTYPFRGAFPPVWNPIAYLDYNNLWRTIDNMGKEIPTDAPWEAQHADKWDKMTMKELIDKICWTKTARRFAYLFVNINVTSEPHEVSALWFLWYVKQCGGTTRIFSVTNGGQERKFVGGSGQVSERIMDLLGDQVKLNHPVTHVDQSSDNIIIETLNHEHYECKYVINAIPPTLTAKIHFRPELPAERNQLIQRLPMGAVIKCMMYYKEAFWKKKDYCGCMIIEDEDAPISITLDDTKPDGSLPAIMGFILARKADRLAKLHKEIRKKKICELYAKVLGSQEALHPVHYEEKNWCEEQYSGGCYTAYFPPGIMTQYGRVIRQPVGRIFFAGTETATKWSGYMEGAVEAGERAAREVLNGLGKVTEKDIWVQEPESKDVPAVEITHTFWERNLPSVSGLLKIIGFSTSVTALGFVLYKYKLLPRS

[12] = target: 3',5'-cyclic-AMP phosphodiesterase 4A (Homo sapiens, UniProt P27815); format: functional
[13] = target: Sodium-dependent noradrenaline transporter (Homo sapiens, UniProt P23975)
[14] = target: Histamine H1 receptor (Homo sapiens, UniProt P35367)

Measured: AC50
Note: assay procedure not described here.

Chain of Cannabinoid receptor 1 (P21554 whole entry): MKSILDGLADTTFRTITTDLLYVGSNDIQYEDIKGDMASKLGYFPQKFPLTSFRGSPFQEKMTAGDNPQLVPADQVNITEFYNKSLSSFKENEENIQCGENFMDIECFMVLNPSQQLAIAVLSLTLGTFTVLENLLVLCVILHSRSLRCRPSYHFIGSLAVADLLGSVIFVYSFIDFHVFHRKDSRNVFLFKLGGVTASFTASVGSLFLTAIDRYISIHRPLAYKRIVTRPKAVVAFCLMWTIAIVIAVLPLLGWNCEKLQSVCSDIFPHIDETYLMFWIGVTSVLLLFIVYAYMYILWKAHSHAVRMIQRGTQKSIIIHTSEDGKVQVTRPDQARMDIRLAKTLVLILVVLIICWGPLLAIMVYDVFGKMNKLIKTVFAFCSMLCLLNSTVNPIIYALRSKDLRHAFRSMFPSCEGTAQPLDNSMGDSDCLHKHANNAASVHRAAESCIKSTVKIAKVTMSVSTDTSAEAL
Chain of Vasopressin V2 receptor (P30518 whole entry): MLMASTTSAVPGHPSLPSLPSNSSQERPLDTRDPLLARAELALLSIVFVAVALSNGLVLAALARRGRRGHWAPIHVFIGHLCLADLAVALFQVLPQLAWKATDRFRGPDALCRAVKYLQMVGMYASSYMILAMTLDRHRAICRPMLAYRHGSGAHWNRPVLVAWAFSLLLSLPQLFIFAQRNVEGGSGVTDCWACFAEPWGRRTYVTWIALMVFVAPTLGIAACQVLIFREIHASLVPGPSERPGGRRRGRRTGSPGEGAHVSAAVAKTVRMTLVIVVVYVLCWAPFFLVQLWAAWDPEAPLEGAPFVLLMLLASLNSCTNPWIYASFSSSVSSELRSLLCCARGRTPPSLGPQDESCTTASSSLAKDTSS
Chain of Gamma-aminobutyric acid receptor subunit alpha-1 (P62813 whole entry): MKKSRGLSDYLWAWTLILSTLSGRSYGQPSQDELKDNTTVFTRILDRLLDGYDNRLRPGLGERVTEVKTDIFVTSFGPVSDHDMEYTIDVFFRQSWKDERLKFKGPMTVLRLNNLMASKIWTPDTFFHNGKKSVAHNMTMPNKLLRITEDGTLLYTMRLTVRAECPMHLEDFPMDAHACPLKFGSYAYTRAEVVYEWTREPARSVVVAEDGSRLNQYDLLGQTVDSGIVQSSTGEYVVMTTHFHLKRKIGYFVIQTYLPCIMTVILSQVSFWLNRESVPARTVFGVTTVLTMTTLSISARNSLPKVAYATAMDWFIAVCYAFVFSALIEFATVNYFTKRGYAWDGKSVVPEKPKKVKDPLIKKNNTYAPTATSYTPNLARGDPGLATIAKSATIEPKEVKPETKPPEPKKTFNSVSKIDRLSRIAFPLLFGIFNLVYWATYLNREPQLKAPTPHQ
Chain of 3',5'-cyclic-AMP phosphodiesterase 4A (P27815 whole entry): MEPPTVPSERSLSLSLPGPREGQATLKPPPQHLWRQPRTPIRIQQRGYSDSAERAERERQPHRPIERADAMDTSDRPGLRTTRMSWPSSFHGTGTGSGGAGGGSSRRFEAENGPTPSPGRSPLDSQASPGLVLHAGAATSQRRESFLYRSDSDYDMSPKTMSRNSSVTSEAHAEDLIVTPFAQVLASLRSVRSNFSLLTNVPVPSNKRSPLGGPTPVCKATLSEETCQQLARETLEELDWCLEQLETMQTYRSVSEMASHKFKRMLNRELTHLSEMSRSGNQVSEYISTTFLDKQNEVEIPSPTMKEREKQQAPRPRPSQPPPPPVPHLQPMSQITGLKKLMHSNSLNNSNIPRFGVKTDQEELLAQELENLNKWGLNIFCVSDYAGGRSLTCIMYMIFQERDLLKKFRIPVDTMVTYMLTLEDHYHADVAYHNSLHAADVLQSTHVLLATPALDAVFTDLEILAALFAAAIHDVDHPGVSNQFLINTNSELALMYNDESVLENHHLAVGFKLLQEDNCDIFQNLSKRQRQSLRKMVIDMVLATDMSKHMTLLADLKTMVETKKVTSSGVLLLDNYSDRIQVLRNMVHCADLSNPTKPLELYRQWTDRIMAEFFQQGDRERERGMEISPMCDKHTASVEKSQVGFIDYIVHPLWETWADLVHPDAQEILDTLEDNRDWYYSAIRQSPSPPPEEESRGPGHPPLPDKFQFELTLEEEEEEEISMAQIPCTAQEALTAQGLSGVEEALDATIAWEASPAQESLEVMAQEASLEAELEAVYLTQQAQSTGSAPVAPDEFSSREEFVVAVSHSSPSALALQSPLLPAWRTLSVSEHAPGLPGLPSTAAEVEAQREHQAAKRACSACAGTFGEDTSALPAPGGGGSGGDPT
Chain of 5-hydroxytryptamine receptor 2B (P41595 whole entry): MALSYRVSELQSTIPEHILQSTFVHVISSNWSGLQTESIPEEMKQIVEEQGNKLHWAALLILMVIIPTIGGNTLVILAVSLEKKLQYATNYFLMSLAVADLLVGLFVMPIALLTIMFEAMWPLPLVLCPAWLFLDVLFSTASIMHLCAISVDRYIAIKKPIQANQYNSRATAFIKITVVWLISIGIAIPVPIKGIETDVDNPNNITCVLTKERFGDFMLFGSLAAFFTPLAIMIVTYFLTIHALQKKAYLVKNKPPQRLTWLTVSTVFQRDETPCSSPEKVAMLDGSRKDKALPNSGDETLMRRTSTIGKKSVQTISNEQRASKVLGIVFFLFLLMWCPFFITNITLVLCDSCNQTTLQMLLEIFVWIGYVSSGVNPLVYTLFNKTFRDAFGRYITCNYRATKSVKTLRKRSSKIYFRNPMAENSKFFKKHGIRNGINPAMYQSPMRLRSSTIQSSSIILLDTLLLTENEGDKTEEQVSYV
Chain of Voltage-dependent L-type calcium channel subunit alpha-1C (P22002 whole entry): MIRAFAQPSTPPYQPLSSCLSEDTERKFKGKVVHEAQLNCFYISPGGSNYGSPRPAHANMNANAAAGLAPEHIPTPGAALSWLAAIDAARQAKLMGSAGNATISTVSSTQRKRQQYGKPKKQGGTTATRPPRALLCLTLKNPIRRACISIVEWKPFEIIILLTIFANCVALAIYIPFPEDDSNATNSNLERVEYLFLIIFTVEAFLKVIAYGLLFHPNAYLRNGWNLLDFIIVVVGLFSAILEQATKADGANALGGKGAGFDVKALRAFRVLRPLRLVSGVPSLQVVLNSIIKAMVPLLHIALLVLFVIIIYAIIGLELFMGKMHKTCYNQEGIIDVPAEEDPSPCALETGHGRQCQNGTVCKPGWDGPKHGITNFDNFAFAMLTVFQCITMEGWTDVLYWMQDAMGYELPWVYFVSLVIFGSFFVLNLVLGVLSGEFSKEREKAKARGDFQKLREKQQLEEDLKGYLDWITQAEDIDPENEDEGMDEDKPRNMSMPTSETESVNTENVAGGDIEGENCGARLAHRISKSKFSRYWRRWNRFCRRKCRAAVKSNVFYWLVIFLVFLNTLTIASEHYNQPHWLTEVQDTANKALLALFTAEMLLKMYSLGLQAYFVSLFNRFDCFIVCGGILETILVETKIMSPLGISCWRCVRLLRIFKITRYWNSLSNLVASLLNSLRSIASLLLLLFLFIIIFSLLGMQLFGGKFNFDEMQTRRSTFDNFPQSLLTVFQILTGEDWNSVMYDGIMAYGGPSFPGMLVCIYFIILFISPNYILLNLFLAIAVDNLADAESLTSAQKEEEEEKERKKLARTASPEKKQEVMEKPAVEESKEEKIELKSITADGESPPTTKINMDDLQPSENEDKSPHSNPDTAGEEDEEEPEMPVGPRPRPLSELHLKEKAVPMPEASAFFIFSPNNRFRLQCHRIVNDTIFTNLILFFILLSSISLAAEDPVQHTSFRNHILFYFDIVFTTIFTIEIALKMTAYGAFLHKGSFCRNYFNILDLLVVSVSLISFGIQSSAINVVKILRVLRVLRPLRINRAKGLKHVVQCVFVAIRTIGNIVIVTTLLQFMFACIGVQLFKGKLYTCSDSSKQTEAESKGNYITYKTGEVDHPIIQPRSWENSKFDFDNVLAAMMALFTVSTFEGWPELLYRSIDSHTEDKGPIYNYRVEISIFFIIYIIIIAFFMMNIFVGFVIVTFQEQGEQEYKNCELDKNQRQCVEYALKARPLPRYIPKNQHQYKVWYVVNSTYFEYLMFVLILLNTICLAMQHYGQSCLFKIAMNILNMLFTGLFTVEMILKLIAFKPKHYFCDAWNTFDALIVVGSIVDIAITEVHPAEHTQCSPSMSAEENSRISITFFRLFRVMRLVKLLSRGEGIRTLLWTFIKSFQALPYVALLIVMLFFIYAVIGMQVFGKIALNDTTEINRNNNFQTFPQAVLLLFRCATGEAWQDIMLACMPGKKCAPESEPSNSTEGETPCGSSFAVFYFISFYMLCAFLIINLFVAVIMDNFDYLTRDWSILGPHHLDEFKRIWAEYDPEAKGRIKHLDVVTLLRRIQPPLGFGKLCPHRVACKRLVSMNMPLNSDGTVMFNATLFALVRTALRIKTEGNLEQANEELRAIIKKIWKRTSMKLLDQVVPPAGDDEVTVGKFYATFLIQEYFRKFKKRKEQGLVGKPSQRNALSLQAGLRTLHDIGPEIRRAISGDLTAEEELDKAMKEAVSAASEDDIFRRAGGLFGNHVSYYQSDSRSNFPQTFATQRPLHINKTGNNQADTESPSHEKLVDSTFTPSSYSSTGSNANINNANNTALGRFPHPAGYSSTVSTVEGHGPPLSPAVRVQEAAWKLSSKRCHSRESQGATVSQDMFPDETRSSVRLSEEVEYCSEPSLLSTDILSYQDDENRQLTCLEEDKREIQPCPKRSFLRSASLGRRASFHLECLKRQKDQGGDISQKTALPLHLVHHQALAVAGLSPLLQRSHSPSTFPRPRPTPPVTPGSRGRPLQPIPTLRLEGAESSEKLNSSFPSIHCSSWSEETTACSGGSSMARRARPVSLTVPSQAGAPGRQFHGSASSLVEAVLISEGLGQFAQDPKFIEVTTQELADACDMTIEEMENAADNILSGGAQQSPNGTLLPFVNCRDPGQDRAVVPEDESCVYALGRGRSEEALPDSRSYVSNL

CCC(C)n1ncn(-c2ccc(N3CCN(c4ccc(OCC5COC(Cn6cncn6)(c6ccc(Cl)cc6Cl)O5)cc4)CC3)cc2)c1=O (configuration not stated) [ITRACONAZOLE]
> 30 µM: [1] | [2] | [3] | [4] | [5] | [6] | [7] | [8]

c1ccc([C@H]2CN3CCSC3=N2)cc1 [LEVAMISOLE]
> 30 µM: [2] | [3] | [4] | [5] | [6] | [7] | [8]

Cc1cccc(Nc2ccccc2C(=O)O)c1C [MEFENAMIC ACID]
> 30 µM: [9] | [10] | [11] | [12] | [13]
not listed: [8] | [14]
> 10 µM: all other assays above

C[C@@H](O)[C@H]1C(=O)N2C(C(=O)O)=C(S[C@@H]3CN[C@H](C(=O)N(C)C)C3)[C@H](C)[C@H]12 [MEROPENEM]
> 300 µM: [6] | [7] | [8]
> 10 µM: [1] | [2] | [3] | [4] | [5]

Clc1ccc(C(c2ccccc2Cl)C(Cl)Cl)cc1 (configuration not stated) [MITOTANE]
0.45 µM: [7]
> 10 µM: [1] | [2] | [4] | [5] | [6]
12.8 µM: [3]

CC1(C)NC(=O)N(c2ccc([N+](=O)[O-])c(C(F)(F)F)c2)C1=O [NILUTAMIDE]
not listed: [8]
> 30 µM: all other assays above

CS(=O)(=O)c1ccc(C2=C(c3ccccc3)C(=O)OC2)cc1 [ROFECOXIB]
> 10 µM: [2] | [3] | [4] | [5]
not listed: [7] | [14]
> 30 µM: all other assays above

Clc1ccc2nsnc2c1NC1=NCCN1 [TIZANIDINE]
> 30 µM: [1] | [6]
> 10 µM: [2] | [3] | [4] | [5] | [14]

NS(=O)(=O)Cc1noc2ccccc12 [ZONISAMIDE]
> 10 µM: [1] | [2] | [3] | [4] | [5] | [14] | [6] | [7]
